This note sets out measurements from ChEMBL document CHEMBL1138399, “Novel poly(ADP-ribose) polymerase-1 inhibitors” (Bioorg Med Chem Lett, 2007).

Experiment [1] deals with PC-12. Briefly: Recovery of NAD+ in hydrogen peroxide treated PC12 cells at 1 uM relative to control. In kind it is functional, Rattus norvegicus.
Experiment [2] has as its system PC-12. In words: Maximum recovery of NAD+ in hydrogen peroxide treated PC12 cells at 30 uM relative to control. In kind it is functional, Rattus norvegicus.
Experiment [3] addresses Poly [ADP-ribose] polymerase 1 (Homo sapiens, UniProt P09874). Briefly: Inhibition of human recombinant PARP1 in U251MG cells by CometAssay. In kind it is cell-based, U-251.
The test system of experiment [4] is PC-12. In words: Maximum recovery of NAD+ in hydrogen peroxide treated PC12 cells at 10 uM relative to control. In kind it is functional, Rattus norvegicus.
The subject of experiment [5] is PC-12. In words: Maximum recovery of NAD+ in hydrogen peroxide treated PC12 cells at 3 uM relative to control. In kind it is functional, Rattus norvegicus.

Poly [ADP-ribose] polymerase 1, sequence (P09874 whole entry): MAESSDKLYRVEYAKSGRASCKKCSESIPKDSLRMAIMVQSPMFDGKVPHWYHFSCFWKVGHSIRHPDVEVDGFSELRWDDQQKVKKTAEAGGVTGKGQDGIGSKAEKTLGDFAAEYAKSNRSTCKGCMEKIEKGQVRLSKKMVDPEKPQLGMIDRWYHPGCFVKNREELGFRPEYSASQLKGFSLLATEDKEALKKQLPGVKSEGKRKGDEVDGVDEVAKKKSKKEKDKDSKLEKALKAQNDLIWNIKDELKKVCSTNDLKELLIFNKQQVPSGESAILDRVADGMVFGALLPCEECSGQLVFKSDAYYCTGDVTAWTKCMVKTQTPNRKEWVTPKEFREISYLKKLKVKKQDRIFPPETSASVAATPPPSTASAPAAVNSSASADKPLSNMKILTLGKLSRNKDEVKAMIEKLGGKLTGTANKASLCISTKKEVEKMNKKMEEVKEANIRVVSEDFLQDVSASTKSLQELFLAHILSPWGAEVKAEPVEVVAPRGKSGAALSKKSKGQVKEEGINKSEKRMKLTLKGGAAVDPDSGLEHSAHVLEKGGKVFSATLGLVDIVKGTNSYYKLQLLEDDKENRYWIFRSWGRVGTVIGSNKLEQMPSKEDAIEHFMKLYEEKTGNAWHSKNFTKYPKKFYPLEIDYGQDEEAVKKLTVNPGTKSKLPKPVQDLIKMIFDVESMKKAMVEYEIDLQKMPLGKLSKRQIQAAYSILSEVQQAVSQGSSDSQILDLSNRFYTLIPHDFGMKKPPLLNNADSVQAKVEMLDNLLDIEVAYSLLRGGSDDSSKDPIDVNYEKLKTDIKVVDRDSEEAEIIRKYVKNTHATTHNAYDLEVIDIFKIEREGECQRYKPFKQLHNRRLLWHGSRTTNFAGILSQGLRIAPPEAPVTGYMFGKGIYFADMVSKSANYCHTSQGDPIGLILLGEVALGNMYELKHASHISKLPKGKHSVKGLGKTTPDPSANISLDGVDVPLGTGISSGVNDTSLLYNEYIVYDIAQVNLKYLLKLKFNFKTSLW

With `Nc1nc(-c2ccc3[nH]c4c5c(c6c(c4c3c2)C(=O)NC6=O)CCC5)cs1`, the Activity came out at 48% in the experiment on PC-12 [1] and 100% in the experiment on PC-12 [2].
Regarding `CC(=O)c1ccc2[nH]c3c4c(c5c(c3c2c1)C(=O)NC5=O)CCC4`, the Activity in the experiment on PC-12 [1] was determined as 35%; in the experiment on PC-12 [2], 57%.
With `CC(C)C(=O)NCc1nc(-c2ccc3[nH]c4c5c(c6c(c4c3c2)C(=O)NC6=O)CCC5)cs1`, the Activity with PC-12 [1] came to 10%; in the experiment on PC-12 [2], 33%.
As usually defined, the IC50 is the concentration at which inhibition is half-maximal. With `CS(=O)(=O)NCc1nc(-c2ccc3[nH]c4c5c(c6c(c4c3c2)C(=O)NC6=O)CCC5)cs1`, the IC50 in experiment [3] worked out at 18 nM. In addition, the Activity in the experiment with PC-12 [1] was determined as 22%; in the experiment on PC-12 [2], 28%.
Turning to `CC(C)(C)S(=O)(=O)Cc1nc(-c2ccc3[nH]c4c5c(c6c(c4c3c2)C(=O)NC6=O)CCC5)cs1`, the Activity was 33% with PC-12 [1] and 51% in the experiment on PC-12 [2].
For the molecule `CCCC(=O)NCc1nc(-c2ccc3[nH]c4c5c(c6c(c4c3c2)C(=O)NC6=O)CCC5)cs1`, the Activity in the experiment on PC-12 [1] is 19%; in the experiment with PC-12 [2], 29%.
Turning to `O=C1NC(=O)c2c1c1c(c3[nH]c4ccc(-c5csc(-c6ccno6)n5)cc4c23)CCC1`, the IC50 in experiment [3] was determined as 66 nM. Further, the Activity with PC-12 [1] stood at 11%; in the experiment with PC-12 [2], 27%.
As to `O=C1NC(=O)c2c1c1c(c3[nH]c4ccc(-c5csc(CNC6O[C@H](CO)[C@@H](O)[C@H](O)[C@H]6O)n5)cc4c23)CCC1` (some centres not stated), the IC50 in experiment [3] is 17 nM. In addition, the Activity in the experiment with PC-12 [1] and in the experiment on PC-12 [2] was 0% in each case.
As to `Cc1nc(-c2ccc3[nH]c4c5c(c6c(c4c3c2)C(=O)NC6=O)CCC5)c(Br)s1`, the values for the Activity in the experiment with PC-12 [1] and in the experiment with PC-12 [2] were 16% and 57%, respectively.
Regarding `CC(C)CC(=O)NCc1nc(-c2ccc3[nH]c4c5c(c6c(c4c3c2)C(=O)NC6=O)CCC5)cs1`, the Activity is on record as 13% with PC-12 [1] and 30% in the experiment on PC-12 [2].
Regarding `CCCCC(=O)NCc1nc(-c2ccc3[nH]c4c5c(c6c(c4c3c2)C(=O)NC6=O)CCC5)cs1`, the Activity in the experiment on PC-12 [1] turned out to be 15%; in the experiment on PC-12 [2], 34%.
As for `CC(C)(C)OC(=O)NC(CCCc1nc(-c2ccc3[nH]c4c5c(c6c(c4c3c2)C(=O)NC6=O)CCC5)cs1)C(=O)OC(C)(C)C` (configuration not stated), in experiment [3], the IC50 turned out to be 46 nM. Also, the Activity in the experiment with PC-12 [4] came out at 27%; in the experiment with PC-12 [1] it was 17%.
For the molecule `CC(C)(C)OC(=O)Cc1nc(-c2ccc3[nH]c4c5c(c6c(c4c3c2)C(=O)NC6=O)CCC5)cs1`, the Activity in the experiment with PC-12 [1] is recorded as 20%; with PC-12 [2] it was 49%.
Taken in the same sequence, the figures for `CNc1nc(-c2ccc3[nH]c4c5c(c6c(c4c3c2)C(=O)NC6=O)CCC5)cs1` were 22% and 56%.
In the case of `O=C1NC(=O)c2c1c1c(c3[nH]c4ccccc4c23)CCC1`, in the experiment on PC-12 [1], the Activity is listed as 30%.
As to `NC(CCCc1nc(-c2ccc3[nH]c4c5c(c6c(c4c3c2)C(=O)NC6=O)CCC5)cs1)C(=O)O.O=C(O)C(F)(F)F` (configuration not stated), the IC50 in experiment [3] was found to be 22 nM. In addition, the Activity with PC-12 [1] is on record as 7%; in the experiment with PC-12 [2], 47%.
Turning to `CC(C)(C)C(=O)OCc1nc(-c2ccc3[nH]c4c5c(c6c(c4c3c2)C(=O)NC6=O)CCC5)cs1`, the results for the Activity in the experiment with PC-12 [1] and in the experiment with PC-12 [2] were 14% and 27%, respectively.
On to `CC(=O)NCc1nc(-c2ccc3[nH]c4c5c(c6c(c4c3c2)C(=O)NC6=O)CCC5)cs1`, for which the Activity in the experiment with PC-12 [1] came to 20%; in the experiment with PC-12 [2], 51%.
With `Cc1sc(N)nc1-c1ccc2[nH]c3c4c(c5c(c3c2c1)C(=O)NC5=O)CCC4`, the Activity in the experiment with PC-12 [1] stood at 37%; with PC-12 [5], 38%.
Consider `O=C(NCc1nc(-c2ccc3[nH]c4c5c(c6c(c4c3c2)C(=O)NC6=O)CCC5)cs1)OCc1ccccc1`, for which the Activity is listed as 17% in the experiment with PC-12 [1] and 46% with PC-12 [2].
Turning to `CS(=O)(=O)Cc1nc(-c2ccc3[nH]c4c5c(c6c(c4c3c2)C(=O)NC6=O)CCC5)cs1`, the Activity in the experiment on PC-12 [1] came to 16%; with PC-12 [2] it was 62%.
With `NCc1ccc2[nH]c3c4c(c5c(c3c2c1)C(=O)NC5=O)CCC4`, the IC50 in experiment [3] stood at 18 nM. Besides, the Activity turned out to be 84% with PC-12 [1] and 100% in the experiment on PC-12 [2].
Consider `CC(=O)Nc1nc(-c2ccc3[nH]c4c5c(c6c(c4c3c2)C(=O)NC6=O)CCC5)cs1`, for which the Activity amounted to 10% with PC-12 [1] and 34% in the experiment on PC-12 [2].
As to `CCC(=O)NCc1nc(-c2ccc3[nH]c4c5c(c6c(c4c3c2)C(=O)NC6=O)CCC5)cs1`, the Activity was determined as 16% with PC-12 [1] and 20% with PC-12 [2].
Turning to `O=C1NC(=O)c2c1c1c(c3[nH]c4ccc(-c5csc(CNC(=O)C6CCCC6)n5)cc4c23)CCC1`, the Activity is 21% in the experiment on PC-12 [1] and 29% in the experiment on PC-12 [2].
`Br.NCc1nc(-c2ccc3[nH]c4c5c(c6c(c4c3c2)C(=O)NC6=O)CCC5)cs1`: the values for the Activity with PC-12 [4] and in the experiment with PC-12 [1] were 41% and 20%, respectively.
With `CCNC(=O)NCc1nc(-c2ccc3[nH]c4c5c(c6c(c4c3c2)C(=O)NC6=O)CCC5)cs1`, the values for the Activity in the experiment with PC-12 [4] and with PC-12 [1] were 22% and 15%, respectively.
Regarding `Cc1nc(-c2ccc3[nH]c4c5c(c6c(c4c3c2)C(=O)NC6=O)CCC5)cs1`, the Activity with PC-12 [1] is 19%; with PC-12 [2] it was 63%.
Consider `O=C1NC(=O)c2c1c1c(c3[nH]c4ccc(-c5csc(CNC(=O)C6CC6)n5)cc4c23)CCC1`, for which the Activity was 11% in the experiment with PC-12 [1] and 16% with PC-12 [2].
With `O=C(CBr)c1ccc2[nH]c3c4c(c5c(c3c2c1)C(=O)NC5=O)CCC4`, the Activity in the experiment with PC-12 [1] is given as 32%; in the experiment on PC-12 [2], 49%.
On to `N=C(N)Nc1nc(-c2ccc3[nH]c4c5c(c6c(c4c3c2)C(=O)NC6=O)CCC5)cs1`, for which the Activity was 19% in the experiment with PC-12 [1] and 53% with PC-12 [2].
